Entries after “also recorded” stand apart in the source; their conditions may differ. Like-named read-outs stand apart in the source and are kept apart here. Each block holds one compound with its values, some of them ahead of it.
Tests used:
[1] = tested on: estradiol stimulation of uterine growth (rat uterus); test: Uterotropic assay: block of estradiol stimulation of uterine growth in immature female rats; assay type: in vivo; conditions: for block of estradiol stimulation of uterine growth (in words): immature rat, FIGS. 14, 15; for GROWTH INHIBITION (%): 10 μg compound, block of estradiol stimulation in the rat uterotropic assay
Protocol: The rat uterus is exquisitively sensitive to estrogen, and this hormone stimulates uterine cellular hypertrophy, hyperplasia and DNA synthesis within 24 hours following a single injection. Estradiol stimulation of nuclear Type II sites is a prerequisite for these responses. This assay includes injecting immature female rats with saline-ethanol vehicle, estradiol-17β and the test compound of interest. Control rats were injected only with saline-ethanol vehicle and estradiol-17β. The rats were sacrificed 24 hours later and the uterine wet and dry weights were determined. The wet and dry weight measurements are well defined biochemical end points of estrogen action and are a direct index of changes in cell proliferation and DNA synthesis.
estradiol stimulation in the rat uterotropic assay.

[2] = tested on: nuclear Type II estrogen binding sites; test: Inhibition assay: [3H]estradiol binding to nuclear Type II sites (uterine nuclei from estrogen-implanted ovariectomized rats); set-up: species or system rat; conditions: for IC50: Table I, read-out: TYPE II INHIBITION: concentration (nM) times 10^-2 to inhibit nuclear Type II binding sites by 50%
Protocol: Tissue was dissected from host animals, weighed, rinsed in saline, and homogenized in 10 mM Tris-1.5 mM EDTA, by approximately four 30-sec bursts in a Sorval Omnimixer with intermittent cooling for about 5 min. This crude homogenate was transferred to a Kontes ground glass homogenizer and further homogenized with intermittent cooling until no tissue aggregates were visible. It was imperative that the homogenate be kept cold, about 4° C. through all homogenization steps. The final homogenate was centrifuged at 800×g for approximately 20 min to obtain the crude nuclear pellet, which was then washed by gentle resuspension in a Dounce homogenizer and then centrifuged at 800×g for approximately 7 min. The final washed nuclear pellet was resuspended in 10 mM Tris-1.5 mM EDTA in a concentration ranging from 5 to 50 mg of fresh tissue equivalents/ml. By the term "fresh tissue equivalent" is meant the amount of material which represents the initial concentration in the fresh uterine tissue.
To assess total and nonspecific binding, aliquots of the nuclear suspension were incubated at 37° C. for 30 min with various concentrations ranging from 2 to 40 nM of [^3 H]estradiol with and without a large molar excess of diethylstilbestrol. The diethylstibestrol concentration ranged from 0.6 to 12.0 μM. Following incubation, the nuclear pellets were resuspended in about 1 ml of 10 mM Tris-1.5 mM EDTA buffer and centrifuged at 800×g for about 7 min. The pellet was extracted with 1 ml of ethanol at about 30° C. for about 30 min, and counted in 4 ml of Liquifluor. Specific binding was determined by substraction of nonspecific binding; i.e., not competable by diethylstilbestrol from the total quantity of [^3 H]estradiol bound. Results were expressed as sites/cell, assuming 8 pg of DNA/cell nucleus and that each binding site binds one molecule of [^3 H]estradiol.
In order to assess the levels of this inhibitor activity in various tissue cytosols and LH-20 column chromatography fractions from these cytosols, the following inhibition assay was used. Uterine nuclei were prepared from estrogen-implanted, adult-ovariectomizedrats. The washed nuclear pellet was diluted to 10 mg of fresh uterine equivalents/ml. At this concentration the effects of the endogenous inhibitor were minimal, and nuclear Type II sites bound maximum quantities of [^3 H]estradiol. Aliquots of these nuclei and the inhibitor sample were incubated at about 4° C. for approximately 60 min in the presence of 40 nM of [^3 H]estradiol with and without 12 μM diethylstilbestrol. Under these conditions, nuclear Type II sites were quantitatively measured without interference from Type I sites. The nuclear pellets were resuspended in 1 ml of 10 mM Tris-1.5 mM EDTA and centrifuged, ethanol extracted, and counted. The results were expressed as the percentage of [^3 H]estradiol bound as compared to the buffer control, or as the percentage of inhibition where 100% bound was 0% inhibition and was equivalent to approximately 45,000 cpm.
Thus, more nuclear Type II sites are measured in dilute than in concentrated nuclei. […] The uterine nuclei were prepared as previously described in Markaverich, B. M. et al., J. Biol. Chem. 258:11663-11671 (1983), the disclosure of which is herein incorporated by reference. Briefly, uterine nuclei after preparation were diluted in 10 mM Tris, 1.5 mM EDTA buffer in final volumes equivalent to 10, 20 or 40 mg fresh uterine equivalents per ml, and assayed for estrogen binding sites by [^3 H]estradiol exchange at 37° C. for 30 minutes. Specific binding was determined by subtraction of non-specific binding, i.e., non-competable with 300-fold excess diethylstilbestrol, from the total quantity of [^3 H]estradiol bound. […] Briefly, acid-precipitated, boiled cytosol from rat uterus, mouse mammary tumor and normal mouse mammary gland was diluted as shown on FIG. 2 and evaluated for inhibitor activity. […]

[3] = tested on: MCF-7 human breast cancer cells; test: MCF-7 cancer cell assay; assay type: cell-based; conditions: FIG. 12; 1-10 μg/ml, 6 days
Excerpt: To assay for tumor growth sensitivity the MCF-7 human breast cancer cell line in tissue culture was used. One skilled in the art will recognize that this is an excellent model system to assess the effects of hormones and drugs on human cancer cell growth and proliferation. The MCF-7 cells have both Type I and nuclear Type II estrogen receptor sites and respond in a proliferative fashion to estrogenic hormones. Furthermore, they are inhibited by well-known anti-estrogens such as Tamoxifen. The MCF-7 cells were plated at 5×10^5 cells/dish in 30 mm petri dishes and grown in Dulbecco's Modified Eagles Medium containing about 10% charcoal stripped fetal bovine serum for approximately 48 hours. During this interval, the cells attached to the plastic dishes and then underwent exponential growth with a cell-doubling time of approximately 24 hours. The plated cells were allowed to attach for approximately 48 hours and the medium was replaced ("day zero"). The cells were allowed to grow exponentially for about 6 days. […] On day 6 the cells were harvested, counted on a hemocytometer and DNA content per dish was determined by the Burton assay (Burton, K., Biochem. J. 62:315-323, 1956). Results are expressed as cells/dish or DNA content (μg/dish) at 6 days following treatment. […]

malignant (tumor) cells = test: Metabolism / inactivation by malignant cells; assay type: in vitro ADME
[4] = tested on: cell growth and proliferation in normal and malignant cells; test: Cell growth / tumor proliferation inhibition (general statement); assay type: cell-based
[5] = tested on: estradiol stimulation of uterine growth (rat uterus); conditions: background statement; cited from earlier work
[6] = tested on: MCF-7 human breast cancer cells; conditions: general knowledge statement; cited from earlier work
esterase = test: Stability to esterase cleavage; assay type: in vitro ADME
[7] = listed as methyl p-hydroxyphenyllactate

binding to / inhibition of nuclear Type II sites (in words) [2]: bind to Type II sites
Compound: CCC(=O)CCc1ccc(O)cc1 [1-(4-hydroxyphenyl)-3-pentanone]
block of estradiol stimulation of uterine growth (in words) [1]: antitumor proliferative activity in the uterotropic assay

IC50 [2]: 100 nM
Compound: COC(=O)C=Cc1ccc(O)c(O)c1 [methyl 3-(3,4-dihydroxyphenyl)-2-propenoate]
GROWTH INHIBITION (%) [1]: 70%

metabolism / inactivation by malignant cells (in words) (malignant (tumor) cells; listed as MeHPLA): malignant cells metabolize MeHPLA | IC50 [2]: 80 nM | fold more effective in inhibiting [3H]estradiol binding to nuclear Type II sites than the free acid (HPLA) ([2]; competition analysis, FIGS. 8 and 9, vs HPLA): approximately 20 fold
Compound: COC(=O)C(O)Cc1ccc(O)cc1 (centres unmarked) [methyl 3-(4-hydroxyphenyl)-2-hydroxypropionate]
inhibition of MCF-7 human breast cancer cells [3]: inhibited MCF-7 breast cancer cells in a similar dose-dependent fashion | metabolism / inactivation by malignant cells (in words) (malignant (tumor) cells; [7]): tumor cells have the ability to inactivate methyl p-hydroxyphenyllactate | GROWTH INHIBITION (%) [1]: 90% | block of estradiol stimulation of uterine growth (in words) ([1]; listed as MeHPLA): block estrogen stimulation of normal cell growth such as that in the rat uterus | block of estradiol stimulation of uterine growth (in words) [1, 7]: block estradiol stimulation of uterine growth in the immature rat | cell growth inhibition / antitumor activity (in words) ([4]; listed as MeHPLA): cell growth and proliferation are inhibited; also recorded: cell growth and proliferation of non-malignant tissues are slowed down or stopped

IC50 [2]: 80 nM
Compound: COC(=O)COc1ccc(O)cc1 [methyl (4-hydroxyphenoxy) acetate, methyl (4-hydroxyphenoxy)acetate]
GROWTH INHIBITION (%) [1]: 70%

IC50 [2]: 600 nM
Compound: COC(=O)C=Cc1ccc(O)c(OC)c1 [methyl 3-(4-hydroxy-3-methoxyphenyl)-2-propenoate]
GROWTH INHIBITION (%) [1]: 56%

IC50 [2]: 8000 nM | fold lower affinity for nuclear Type II sites than methyl p-hydroxyphenyllactate ([2]; vs MeHPLA): 20 fold
Compound: O=C(O)C(O)Cc1ccc(O)cc1 (centres unmarked) [3-(4-hydroxyphenyl)-2-hydroxypropionic acid, reference compound]
inhibition of MCF-7 human breast cancer cells [3]: did not | GROWTH INHIBITION (%) [1]: 0% | block of estradiol stimulation of uterine growth (in words) ([1]; listed as hydroxyphenyllactic acid): higher doses of hydroxyphenyllactic acid showed some partial antagonism; also recorded: but not hydroxyphenyllactic acid | cell growth inhibition / antitumor activity (in words) [4]: inhibits the cell growth much less effectively | binding to / inhibition of nuclear Type II sites (in words) [2]: low binding affinity for nuclear Type II sites

Continued, compound first:

Compound: C[C@@H]1C[C@H]2[C@@H]3CCC4=CC(=O)C=C[C@]4(C)[C@@]3(F)[C@@H](O)C[C@]2(C)[C@@]1(O)C(=O)CO [dexamethasone]
inhibition of nuclear Type II sites associated with antagonism of uterotropic responses to estrogen [5]: associated with antagonism of uterotropic responses to estrogen

Compound: CC/C(=C(\c1ccccc1)c1ccc(OCCN(C)C)cc1)c1ccccc1 [Tamoxifen]
inhibition of MCF-7 cells by known anti-estrogens [6]: inhibited

Compound: COc1ccc2c(c1)CCC(c1ccccc1)=C2c1ccc(OCCN2CCCC2)cc1 [nafoxidine]
inhibition of nuclear Type II sites associated with antagonism of uterotropic responses to estrogen [5]: associated with antagonism of uterotropic responses to estrogen

Compound: CC(=O)[C@H]1CC[C@H]2[C@@H]3CCC4=CC(=O)CC[C@]4(C)[C@H]3CC[C@]12C [progesterone]
inhibition of nuclear Type II sites associated with antagonism of uterotropic responses to estrogen [5]: associated with antagonism of uterotropic responses to estrogen

Compound: CC(=O)CCc1ccc(O)cc1 [1-(4-hydroxyphenyl)-3-butanone]
stability (in words) (esterase): not subject to the esterase cleavage; also recorded: more stable | GROWTH INHIBITION (%) [1]: 96% | block of estradiol stimulation of uterine growth (in words) [1]: antitumor proliferative activity in the uterotropic assay; also recorded: blocks estradiol stimulation of uterine growth when injected into immature rats | inhibition in culture and in vivo relative to MeHPLA (in words) ([4]; culture and in vivo): a better inhibitor in culture and in vivo | binding to / inhibition of nuclear Type II sites (in words) [2]: bind to Type II sites; also recorded: binds to the nuclear Type II sites with a high affinity | IC50 [2]: 200 nM

Compound: CCN(CC)CCOc1ccc(C(=C(Cl)c2ccccc2)c2ccccc2)cc1 [clomiphene]
inhibition of nuclear Type II sites associated with antagonism of uterotropic responses to estrogen [5]: associated with antagonism of uterotropic responses to estrogen

Reference: patent publication US5216024A, “Cell growth inhibitors and methods of treating cancer and cell proliferative diseases” (Baylor College of Medicine, priority 1988, dated 1993)
